This note sets out measurements from patent US20170158697A1, “Protein Kinase Inhibitors” (Pharmascience Inc., priority 2013, published 2017).

The structures appear in SMILES notation.

Test [1] addresses T1, human BTK kinase (hBTK) (Homo sapiens, UniProt Q06187).
T1 construct: purchased Eurofins Pharma Discovery Services UK Limited (assay service)
As to the kind of experiment: Btk kinase inhibition assay, Method B (KinaseProfiler radiometric protein kinase assay, Eurofins). The class given is biochemical. The note with it: 40 minutes, 250 μM substrate. As to the method: In vitro potency of selected compound was defined against human BTK kinase (hBTK) using KinaseProfiler radiometric protein kinase assays performed at Eurofins Pharma Discovery Services UK Limited.
hBTK kinase is diluted in buffer and all compounds were prepared to 50× final assay concentration in 100% DMSO. This working stock of the compound was added to the assay well as the first component in the reaction, followed by the remaining components as detailed in the assay protocol listed above. The reaction was initiated by the addition of the MgATP mix. The kinase reaction was performed at room temperature for 40 minutes in presence of 250 μM substrate, 10 mM MgAcetate, [γ-33P-ATP] (specific activity approx. 500 cpm/pmol, concentration as required) and variable test article concentrations. The ATP concentrations in the assays were with 15 μM of the apparent. The reaction was stopped by the addition of 3% phosphoric acid solution. 10 μL of the reaction is then spotted onto a P30 filtermat and washed three times for 5 minutes in 75 mM phosphoric acid and once in methanol prior to drying and scintillation counting. In addition positive control wells contain all components of the reaction, except the compound of interest; however, DMSO (at a final concentration of 2%) were included in these wells to control for solvent effects as well as blank wells contain all components of the reaction, with a reference inhibitor replacing the compound of interest. This abolishes kinase activity and establishes the base-line (0% kinase activity remaining). The potency of each compound was reported by estimating the EC50.

Test [2] concerns splenocytes from CD1 mice. Kind of test: Splenic cell proliferation assay (anti-IgM stimulated, Cell Titer-Glo). The note with it: Splenocyte; mouse splenocytes, 2.5 ug/ml anti-IgM F(ab')2 for 72 h; read-out: Inhibition of splenic cell proliferation, EC50. The class given is cell-based. As to the method: Splenic Cell Proliferation Assay
Proliferation of splenocytes in response to anti-IgM can be blocked by inhibition of Btk. Splenocytes were obtained from 6 week old male CD1 mice (Charles River Laboratories Inc.). Mouse spleens were manually disrupted in PBS and filtered using a 70 um cell strainer followed by ammonium chloride red blood cell lysis. Cells were washed, resuspended in Splenocyte Medium (HyClone RPMI supplemented with 10% heat-inactivated FBS, 0.5× non-essential amino acids, 10 mM HEPES, 50 uM beta mercaptoethanol) and incubated at 37° C., 5% CO2 for 2 h to remove adherent cells. Suspension cells were seeded in 96 well plates at 50,000 cells per well and incubated at 37° C., 5% CO2 for 1 h. Splenocytes were pre-treated in triplicate with 10,000 nM curves of Formula I compounds for 1 h, followed by stimulation of cell proliferation with 2.5 ug/ml anti-IgM F(ab′)2 (Jackson ImmunoResearch) for 72 h. Cell proliferation was measured by Cell Titer-Glo Luminescent Assay (Promega). EC50 values (50% proliferation in the presence of compound as compared to vehicle treated controls) were calculated from dose response compound curves using GraphPad Prism Software.
A general note: ATP-based viability assays read luminescence as a measure of living cells.

In test [3] the target is T2, histidine tagged recombinant human full-length Bruton Agammaglobulinemia Tyrosine Kinase (Btk) (Homo sapiens, UniProt Q06187).
T2 construct: histidine tagged recombinant human full-length Bruton Agammaglobulinemia Tyrosine Kinase (Btk); His tag
T2 sequence (Q06187 whole entry): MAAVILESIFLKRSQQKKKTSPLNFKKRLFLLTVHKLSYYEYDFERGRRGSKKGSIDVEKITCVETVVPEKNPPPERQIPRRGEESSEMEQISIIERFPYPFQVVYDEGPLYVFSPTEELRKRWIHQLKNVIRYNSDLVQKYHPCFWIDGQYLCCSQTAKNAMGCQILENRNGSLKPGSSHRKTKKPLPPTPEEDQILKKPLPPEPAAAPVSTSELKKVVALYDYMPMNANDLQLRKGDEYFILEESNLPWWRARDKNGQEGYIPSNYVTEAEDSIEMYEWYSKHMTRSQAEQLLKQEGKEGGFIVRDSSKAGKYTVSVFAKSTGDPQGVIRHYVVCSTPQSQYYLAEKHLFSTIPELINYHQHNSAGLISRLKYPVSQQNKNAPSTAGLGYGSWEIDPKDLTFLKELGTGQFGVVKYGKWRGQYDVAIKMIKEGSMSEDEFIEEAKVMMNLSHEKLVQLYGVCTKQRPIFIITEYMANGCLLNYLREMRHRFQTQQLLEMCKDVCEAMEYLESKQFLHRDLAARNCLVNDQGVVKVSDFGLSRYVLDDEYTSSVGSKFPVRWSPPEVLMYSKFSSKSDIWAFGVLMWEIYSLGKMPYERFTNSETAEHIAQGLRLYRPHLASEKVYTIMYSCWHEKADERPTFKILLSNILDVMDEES
As to the kind of experiment: Btk kinase inhibition assay, Method A (fluorescence polarization, KinEASE FP Fluorescein Green). The note with it: 10 μM ATP, 250 μM substrate, 60 minutes, Ki by Cheng-Prusoff from IC50, read-out: Inhibition of Btk, EC50 (nM) (legend: Ki). The class given is biochemical. As to the method: Fluorescence polarization-based kinase assays were performed in 384 well-plate format using histidine tagged recombinant human full-length Bruton Agammaglobulinemia Tyrosine Kinase (Btk) and a modified protocol of the KinEASE™ FP Fluorescein Green Assay supplied from Millipore®. Kinase reaction were performed at room temperature for 60 minutes in presence of 250 μM substrate, 10 μM ATP and variable test article concentrations. The reaction was stopped with EDTA/kinease detection reagents. Phosphorylation of the substrate peptide was detected by fluorescence polarization measured with a Tecan 500 instrument. From the dose-response curve obtained, the IC50 was calculated using Graph Pad Prisms® using a non linear fit curve. The Km for ATP on each enzyme was experimentally determined and the Ki values calculated using the Cheng-Prusoff equation (see: Cheng Y, Prusoff W. H. (1973) Relationship between the inhibition constant (K1) and the concentration of inhibitor which causes 50% inhibition (I50) of an enzymatic reaction”. Biochem Pharmacol 22 (23): 3099-108). ki values are reported in Tables 2a and 2b: […]
In general terms: In fluorescence polarisation assays a small probe gives low polarisation when free and higher when bound to something large.

T1 sequence (Q06187 whole entry): as above

As for `CC(=O)N1CCC[C@@H](n2cc(-c3ccc(Oc4cc(F)cc(OCc5cnc(C)nc5)c4)cc3)c3c(N)ncnc32)C1` [Compound 25], the EC50 in test [1] and in test [2] was under 0.1 µM each time.

As a reminder, the Ki is the dissociation constant of the complex between target and ligand, obtained from inhibition or displacement. Take `Cc1ncc(COc2ccc(F)c(Oc3ccc(-c4cn(C(C)C)c5ncnc(N)c45)cc3)c2)cn1` [Compound 11]: in test [3], the inhibition constant (Ki) is under 100 nM. The EC50 in test [2] fell in the range of 0.1 to 1 µM.

Regarding `Cc1ncc(COc2cc(F)cc(Oc3ccc(-c4cn(C5CCOCC5)c5ncnc(N)c45)cc3)c2)s1` [Compound 5], the Ki in test [3] is under 100 nM. The EC50 in test [2] is under 0.1 µM.

In the case of `Cc1ncc(COc2cc(F)cc(Oc3ccc(-c4cn([C@H]5C[C@@H](O)C5)c5ncnc(N)c45)cc3)c2)cn1` [Compound 26], the EC50 in test [1] and in test [2] was under 0.1 µM in each case.

Turning to `CC(C)n1cc(-c2ccc(Oc3cc(F)cc(OCc4cncnc4)c3)cc2)c2c(N)ncnc21` [Compound 17], in test [3], the Ki is under 100 nM. Moreover, the EC50 in test [2] was under 0.1 µM.

With `CC(=O)N1CCC[C@@H]1Cn1cc(-c2ccc(Oc3cc(F)cc(OCc4cnc(C)nc4)c3)cc2)c2c(N)ncnc21` [Compound 22], the EC50 was under 0.1 µM in test [1] and 0.1 to 1 µM in test [2].

For the compound `Cc1ncc(COc2cccc(Oc3ccc(-c4cn(C(C)C)c5ncnc(N)c45)cc3)c2F)cn1` [Compound 19], the EC50 in test [1] and in test [2] was under 0.1 µM throughout.

Turning to `Cc1ncc(COc2cc(Oc3ccc(-c4cn(C(C)C)c5ncnc(N)c45)cc3)ccc2F)cn1` [Compound 15], in test [3], the Ki lay within 100 to 1000 nM. Besides, in test [2], the EC50 was in the range of 0.1 to 1 µM.

In the case of `Cc1ncc(COc2cc(F)cc(Oc3ccc(-c4cn(C[C@@H]5CCCN5)c5ncnc(N)c45)cc3)c2)s1` [Compound 7], the Ki in test [3] is under 100 nM. Besides, the EC50 in test [2] was 0.1 to 1 µM.

As to `Cc1ncc(COc2cc(F)cc(Oc3ccc(-c4cn(C(C)C)c5ncnc(N)c45)cc3)c2)s1` [Compound 1], the Ki in test [3] was under 100 nM. In addition, the EC50 in test [2] was under 0.1 µM.

Turning to `Cc1ccc(COc2cc(F)cc(Oc3ccc(-c4cn(C5CCOCC5)c5ncnc(N)c45)cc3)c2)cn1` [Compound 4], in test [3], the Ki was under 100 nM. In addition, in test [2], the EC50 is under 0.1 µM.

As for `CC(C)n1cc(-c2ccc(Oc3cc(F)cc(OCc4cnc(C5CC5)nc4)c3)cc2)c2c(N)ncnc21` [Compound 14], the Ki in test [3] is under 100 nM. The EC50 in test [2] was 0.1 to 1 µM.

As to `Cc1ccc(COc2cc(F)cc(Oc3ccc(-c4cn(C(C)C)c5ncnc(N)c45)cc3)c2)cn1` [Compound 2], the Ki in test [3] was under 100 nM. Further, in test [2], the EC50 was under 0.1 µM.

Regarding `CCCc1ncc(COc2cc(F)cc(Oc3ccc(-c4cn(C(C)C)c5ncnc(N)c45)cc3)c2)cn1` [Compound 12], the Ki in test [3] was under 100 nM. Also, the EC50 in test [2] was 0.1 to 1 µM.

Take `CC(C)n1cc(-c2ccc(Oc3cc(F)cc(OCc4ccc(CO)nc4)c3)cc2)c2c(N)ncnc21` [Compound 21]: the EC50 in test [1] and in test [2] was under 0.1 µM each time.

For `CC(C)n1cc(-c2ccc(Oc3cc(F)cc(OCc4ccccc4)c3)cc2)c2c(N)ncnc21` [Compound 9], the inhibition constant (Ki) in test [3] is under 100 nM. In test [2], the EC50 lay in the range of 0.1 to 1 µM.

On to `Cc1ncc(COc2cc(F)cc(Oc3ccc(-c4cn([C@H]5C[C@@](C)(O)C5)c5ncnc(N)c45)cc3)c2)cn1` [Compound 18], for which the Ki in test [3] is under 100 nM. For the same compound, the EC50 in test [2] was under 0.1 µM.

Take `Cc1ncc(COc2cc(F)cc(Oc3ccc(-c4cn(C(C)(C)CO)c5ncnc(N)c45)cc3)c2)cn1` [Compound 24]: the EC50 in test [1] is 0.1 to 1 µM; in test [2] it was under 0.1 µM.

As to `Cc1ncc(COc2cc(F)cc(Oc3ccc(-c4cn(C[C@@H]5CCCN5)c5ncnc(N)c45)cc3)c2)cn1` [Compound 8], the Ki in test [3] is under 100 nM. Also, the EC50 in test [2] fell in the range of 0.1 to 1 µM.

As to `CC(C)n1cc(-c2ccc(Oc3cc(F)cc(OCc4cnc(CO)nc4)c3)cc2)c2c(N)ncnc21` [Compound 20], the EC50 is under 0.1 µM in test [1] and 0.1 to 1 µM in test [2].

In the case of `Cc1ncc(COc2cc(F)cc(Oc3ccc(-c4cn(C5CCOCC5)c5ncnc(N)c45)cc3)c2)cn1` [Compound 6], in test [3], the Ki is under 100 nM. Besides, in test [2], the EC50 was under 0.1 µM.

In the case of `Cc1ncc(COc2cc(F)cc(Oc3ccc(-c4cn([C@H]5C[C@@H](N6CCOCC6)C5)c5ncnc(N)c45)cc3)c2)cn1` [Compound 23], the Ki in test [3] is under 100 nM. The EC50 in test [2] is under 0.1 µM.

In the case of `Cc1ncc(COc2cc(F)cc(Oc3ccc(-c4cn(C(C)C)c5ncnc(N)c45)cc3)c2)cn1` [Compound 3], the Ki in test [3] is under 100 nM. The EC50 in test [2] was under 0.1 µM.

Regarding `CC(C)c1ncc(COc2cc(F)cc(Oc3ccc(-c4cn(C(C)C)c5ncnc(N)c45)cc3)c2)cn1` [Compound 13], in test [3], the Ki was under 100 nM. For the same compound, in test [2], the EC50 was 0.1 to 1 µM.

With `Cc1ncc(COc2cc(F)cc(Oc3ccc(-c4cn(C[C@H]5CCCN5)c5ncnc(N)c45)cc3)c2)cn1` [Compound 10], in test [3], the Ki fell in the range of 100 to 1000 nM. Besides, in test [2], the EC50 fell in the range of 0.1 to 1 µM.
